Laboratory results taken from paper PMC4623604, “Discovery of Small Molecules that Inhibit the Disordered Protein, p27^Kip1” (Scientific Reports, 2015).

Columns and labels:
p27-D2/Cdk2/cyclin A [1] = target: T1, p27-D2/Cdk2/cyclin A (Homo sapiens, UniProt P46527); test: 2D 1H-15N TROSY-HSQC NMR displacement of p27-D2 from Cdk2/cyclin A; assay type: binding; details: 3 mM SJ403, 100 μM complex, 308 K
T1 construct: p27-D2 (residues 58-105 of human p27); 6xHis (N, cleaved yes); made in house; host or cells: E. coli for p27-D2
Description: We next used NMR spectroscopy to monitor the displacement of ^2H/^13C/^15N-labeled p27-D2 from Cdk2/cyclin A by SJ403; the complex of p27-D2 with Cdk2/cyclin A (100 μM) was prepared with a slight excess of ^2H/^13C/^15N-p27-D2 (mole ratio, 1.1:1.0 p27-D2:Cdk2/cyclin A). […] In this method, the relative population of the free state resonances (p^f; for the resonance of each p27-D2 residue) was determined as a fraction of the total intensity of both free and bound resonances for a given residue. These values were compared by forming the ratio of the two relative free state populations (p^fw/SJ403/p^fw/o SJ403); values greater than 1 indicated compound-dependent displacement. The relative populations for the bound state (p^b) were also determined for samples without (p^bw/o SJ403) and with SJ403 (p^bw/SJ403). […]
Figure 5 2D ^1H-^15N TROSY-HSQC NMR analysis of displacement of ^15N-p27-D2 from Cdk2/cyclin A by SJ403. 2D ^1H-^15N TROSY-HSQC NMR spectra of p27-D2/Cdk2/cyclin A in the absence (control) and presence of SJ403 (3 mM), respectively, were recorded. […]

p27-D2/Cdk2/cyclin A [2] = target: T1, p27-D2/Cdk2/cyclin A; test: Cdk2/cyclin A kinase activity assay in the presence of p27-D2 (restoration of activity); assay type: biochemical
Description: Figure 6 The small molecule SJ403 displaces p27-D2 from Cdk2/cyclin A and partially restores Cdk2 kinase activity. Analysis of Cdk2 kinase activity [within the Cdk2/cyclin A complex (200 pM) using Histone H1 as the substrate] in the presence of p27-D2 (200 nM) and varied concentrations of SJ403 (from 10 μM to 3 mM) (a) and varied concentrations of SJ403 alone (b). Cdk2 is partially active under the starting conditions in (a) and activity is enhanced through addition of SJ403. In the absence of p27-D2 (b), addition of SJ403 is associated with Cdk2 inhibition. All experiments were performed in triplicate and average values and the standard deviations of the means are shown.
Cdk2/Cyclin A (200 pM) was mixed with Histone H1 (15 μM; EMD Millipore), p27-D2 (200 nM) and varied amounts of lyophilized SJ403 and incubated overnight at 4 °C. The effect of the SJ403 compound on Cdk2 activity was determined by performing similar experiments in the absence of p27-D2. […] The reactions were quenched by addition of SDS-gel loading buffer (5 μL) and then analyzed by SDS-PAGE (10 μL). The gels were dried at 70 °C under vacuum and a phosphoimager (GE Healthcare, Piscataway, NJ) was used to quantify the ^32P-Histone H1 bands. IC50 values were determined by curve fitting using KaleidaGraph software. […]

T1 sequence (P46527 58-105): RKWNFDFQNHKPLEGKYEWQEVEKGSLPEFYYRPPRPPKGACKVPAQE

CCn1c(C)c(C)n2c3c(=O)n(C)c(=O)n(C)c3nc12 [SJ403]
displacement of p27-D2 from Cdk2/cyclin A by NMR (p27-D2/Cdk2/cyclin A [1]): partial displacement | Cdk2 kinase activity after titration of SJ403 (of full kinase activity) (p27-D2/Cdk2/cyclin A [2]; 200 nM p27-D2, 200 pM Cdk2/cyclin A, SJ403 10 μM to 3 mM, start 13%): ~ 20% | increase in Cdk2 kinase activity (p27-D2/Cdk2/cyclin A [2]; from 13% to ~20% of full activity, 200 nM p27-D2): > 50%
